Columns and labels:
DdGlud2 = molecular target: T1, DdGlud2 (Dictyostelium discoideum, UniProt Q54VI3); assay: NADH formation at […] nm; format: biochemical; details: activator; 1 mM GTP, 10 mM Glu, 1 mM NAD+; pH 8.0, 23 °C
T1 construct: gene glud2; full-length, His6-SUMO tag cleaved by ULP, E. coli BL21 Rosetta; elutes at 212 kDa
T1 sequence (Q54VI3 1-1042): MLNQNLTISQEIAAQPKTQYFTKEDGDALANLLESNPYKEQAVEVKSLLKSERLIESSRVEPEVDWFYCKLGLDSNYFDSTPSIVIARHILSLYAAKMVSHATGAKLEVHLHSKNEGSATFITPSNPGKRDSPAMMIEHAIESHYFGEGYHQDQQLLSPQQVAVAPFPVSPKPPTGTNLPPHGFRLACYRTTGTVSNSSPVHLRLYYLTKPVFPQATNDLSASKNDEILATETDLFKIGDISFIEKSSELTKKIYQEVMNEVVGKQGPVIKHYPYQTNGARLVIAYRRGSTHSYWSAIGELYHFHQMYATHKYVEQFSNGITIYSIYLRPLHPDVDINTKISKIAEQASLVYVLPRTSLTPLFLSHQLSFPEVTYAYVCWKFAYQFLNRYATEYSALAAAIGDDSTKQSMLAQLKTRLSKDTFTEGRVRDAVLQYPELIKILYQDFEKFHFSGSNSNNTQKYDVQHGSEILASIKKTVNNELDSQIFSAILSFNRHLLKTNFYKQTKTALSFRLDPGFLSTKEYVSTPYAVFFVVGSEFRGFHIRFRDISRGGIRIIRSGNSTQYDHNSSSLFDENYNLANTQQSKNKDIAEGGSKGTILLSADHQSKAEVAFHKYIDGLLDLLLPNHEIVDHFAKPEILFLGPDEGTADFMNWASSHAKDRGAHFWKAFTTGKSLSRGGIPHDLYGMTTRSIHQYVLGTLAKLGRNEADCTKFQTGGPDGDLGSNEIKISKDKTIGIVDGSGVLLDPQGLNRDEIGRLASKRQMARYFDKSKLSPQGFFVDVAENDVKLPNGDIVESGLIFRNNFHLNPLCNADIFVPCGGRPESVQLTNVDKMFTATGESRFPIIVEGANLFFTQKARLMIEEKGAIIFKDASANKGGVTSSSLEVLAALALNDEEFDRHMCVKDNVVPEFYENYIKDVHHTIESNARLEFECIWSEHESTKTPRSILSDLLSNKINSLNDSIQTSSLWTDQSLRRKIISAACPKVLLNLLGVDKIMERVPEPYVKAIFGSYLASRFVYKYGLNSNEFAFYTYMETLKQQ

Ltuc1293 = molecular target: T2, Ltuc1293 (Legionella tucsonensis, UniProt A0A0W0ZWS2); format: biochemical
T2 construct: gene Ltuc_1293

Llo2453 = molecular target: T3, Llo2453 (Legionella longbeachae, UniProt D3HKA9); format: biochemical
T3 construct: gene LLO_2453

Lart1 = Lart1 (Legionella pneumophila, UniProt Q5ZZ30); details: 250 μM etheno-NAD+, 0-8 mM nicotinamide, 0.5 mg/ml DdGlud2; pH 7.5, 100 mM NaCl, room temperature
purified protein = substrate: N[C@@H](CCC(=O)O)C(=O)O; assay: purified protein; details: 5 mM NAD+, 100 mM Tris-HCl pH 8.0, 0.1 mg/ml BSA, 1 mM DTT, 23 °C, oxidative deamination
SEC = molecular target: the molecule itself; assay: SEC

T2 sequence (A0A0W0ZWS2 1-330): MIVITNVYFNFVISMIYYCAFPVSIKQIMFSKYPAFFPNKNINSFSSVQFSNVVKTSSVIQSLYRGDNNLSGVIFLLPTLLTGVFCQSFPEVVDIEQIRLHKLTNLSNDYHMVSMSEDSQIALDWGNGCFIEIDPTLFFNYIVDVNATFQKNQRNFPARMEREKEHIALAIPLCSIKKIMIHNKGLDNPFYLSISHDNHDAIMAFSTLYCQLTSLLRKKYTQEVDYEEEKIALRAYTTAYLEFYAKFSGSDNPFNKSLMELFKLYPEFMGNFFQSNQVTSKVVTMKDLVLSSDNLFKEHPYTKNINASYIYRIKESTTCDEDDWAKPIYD
T3 sequence (D3HKA9 1-303): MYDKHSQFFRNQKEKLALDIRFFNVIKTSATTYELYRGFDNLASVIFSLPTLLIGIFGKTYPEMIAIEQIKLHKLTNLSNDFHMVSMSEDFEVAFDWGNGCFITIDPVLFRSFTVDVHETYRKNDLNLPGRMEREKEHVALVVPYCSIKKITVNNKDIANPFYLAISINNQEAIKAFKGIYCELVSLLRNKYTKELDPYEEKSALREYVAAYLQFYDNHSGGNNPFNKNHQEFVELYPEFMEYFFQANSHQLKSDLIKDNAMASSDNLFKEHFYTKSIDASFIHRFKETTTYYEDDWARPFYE
Sequence of Lart1 (Q5ZZ30 whole entry, looked up): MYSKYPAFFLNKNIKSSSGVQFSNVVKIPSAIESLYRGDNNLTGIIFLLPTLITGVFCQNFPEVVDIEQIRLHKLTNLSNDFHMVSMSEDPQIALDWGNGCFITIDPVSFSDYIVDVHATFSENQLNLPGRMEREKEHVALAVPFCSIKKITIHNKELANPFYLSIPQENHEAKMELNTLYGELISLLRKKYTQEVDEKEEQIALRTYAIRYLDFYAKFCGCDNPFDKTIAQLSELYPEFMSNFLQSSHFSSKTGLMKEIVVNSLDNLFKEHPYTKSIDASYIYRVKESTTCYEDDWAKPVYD

Nc1nc2c(ncn2[C@@H]2O[C@H](COP(=O)(O)OP(=O)(O)OP(=O)(O)O)[C@@H](O)[C@H]2O)c(=O)[nH]1 [GTP]
fold stimulation at 1 mM (DdGlud2): 2.5 fold

NC(=O)c1ccc[n+]([C@@H]2O[C@H](COP(=O)(O)OP(=O)(O)OC[C@H]3O[C@@H](n4cnc5c4ncn4ccnc54)[C@H](O)[C@@H]3O)[C@@H](O)[C@H]2O)c1 [etheno-NAD+]
ADP-ribosylation of DdGlud2, anti-ethenoadenosine immunoblot (Ltuc1293): ADP-ribosylated DdGlud2 in assays using both etheno-NAD+ and biotin-NAD+ as substrates
ADP-ribosylation of DdGlud2, anti-ethenoadenosine immunoblot (Llo2453): ADP-ribosylated DdGlud2 in assays using both etheno-NAD+ and biotin-NAD+ as substrates

NC(=O)c1cccnc1 [nicotinamide]
inhibition (Lart1): Lart1 ADP ribosylation was inhibited by free nicotinamide in ≥ twofold excess of NAD+

B1: DdGlud2 (Dictyostelium discoideum) (protein)
chain: MLNQNLTISQEIAAQPKTQYFTKEDGDALANLLESNPYKEQAVEVKSLLKSERLIESSRVEPEVDWFYCKLGLDSNYFDSTPSIVIARHILSLYAAKMVSHATGAKLEVHLHSKNEGSATFITPSNPGKRDSPAMMIEHAIESHYFGEGYHQDQQLLSPQQVAVAPFPVSPKPPTGTNLPPHGFRLACYRTTGTVSNSSPVHLRLYYLTKPVFPQATNDLSASKNDEILATETDLFKIGDISFIEKSSELTKKIYQEVMNEVVGKQGPVIKHYPYQTNGARLVIAYRRGSTHSYWSAIGELYHFHQMYATHKYVEQFSNGITIYSIYLRPLHPDVDINTKISKIAEQASLVYVLPRTSLTPLFLSHQLSFPEVTYAYVCWKFAYQFLNRYATEYSALAAAIGDDSTKQSMLAQLKTRLSKDTFTEGRVRDAVLQYPELIKILYQDFEKFHFSGSNSNNTQKYDVQHGSEILASIKKTVNNELDSQIFSAILSFNRHLLKTNFYKQTKTALSFRLDPGFLSTKEYVSTPYAVFFVVGSEFRGFHIRFRDISRGGIRIIRSGNSTQYDHNSSSLFDENYNLANTQQSKNKDIAEGGSKGTILLSADHQSKAEVAFHKYIDGLLDLLLPNHEIVDHFAKPEILFLGPDEGTADFMNWASSHAKDRGAHFWKAFTTGKSLSRGGIPHDLYGMTTRSIHQYVLGTLAKLGRNEADCTKFQTGGPDGDLGSNEIKISKDKTIGIVDGSGVLLDPQGLNRDEIGRLASKRQMARYFDKSKLSPQGFFVDVAENDVKLPNGDIVESGLIFRNNFHLNPLCNADIFVPCGGRPESVQLTNVDKMFTATGESRFPIIVEGANLFFTQKARLMIEEKGAIIFKDASANKGGVTSSSLEVLAALALNDEEFDRHMCVKDNVVPEFYENYIKDVHHTIESNARLEFECIWSEHESTKTPRSILSDLLSNKINSLNDSIQTSSLWTDQSLRRKIISAACPKVLLNLLGVDKIMERVPEPYVKAIFGSYLASRFVYKYGLNSNEFAFYTYMETLKQQ
Km (purified protein): 18.53 (95% CI 10.72, 32.15) mM

B2: Dictyostelium discoideum Glud2 (NAD+-dependent glutamate dehydrogenase of the 115-kDa class) (enzyme, UniProt Q54VI3 1-1042, looked up)
chain: MLNQNLTISQEIAAQPKTQYFTKEDGDALANLLESNPYKEQAVEVKSLLKSERLIESSRVEPEVDWFYCKLGLDSNYFDSTPSIVIARHILSLYAAKMVSHATGAKLEVHLHSKNEGSATFITPSNPGKRDSPAMMIEHAIESHYFGEGYHQDQQLLSPQQVAVAPFPVSPKPPTGTNLPPHGFRLACYRTTGTVSNSSPVHLRLYYLTKPVFPQATNDLSASKNDEILATETDLFKIGDISFIEKSSELTKKIYQEVMNEVVGKQGPVIKHYPYQTNGARLVIAYRRGSTHSYWSAIGELYHFHQMYATHKYVEQFSNGITIYSIYLRPLHPDVDINTKISKIAEQASLVYVLPRTSLTPLFLSHQLSFPEVTYAYVCWKFAYQFLNRYATEYSALAAAIGDDSTKQSMLAQLKTRLSKDTFTEGRVRDAVLQYPELIKILYQDFEKFHFSGSNSNNTQKYDVQHGSEILASIKKTVNNELDSQIFSAILSFNRHLLKTNFYKQTKTALSFRLDPGFLSTKEYVSTPYAVFFVVGSEFRGFHIRFRDISRGGIRIIRSGNSTQYDHNSSSLFDENYNLANTQQSKNKDIAEGGSKGTILLSADHQSKAEVAFHKYIDGLLDLLLPNHEIVDHFAKPEILFLGPDEGTADFMNWASSHAKDRGAHFWKAFTTGKSLSRGGIPHDLYGMTTRSIHQYVLGTLAKLGRNEADCTKFQTGGPDGDLGSNEIKISKDKTIGIVDGSGVLLDPQGLNRDEIGRLASKRQMARYFDKSKLSPQGFFVDVAENDVKLPNGDIVESGLIFRNNFHLNPLCNADIFVPCGGRPESVQLTNVDKMFTATGESRFPIIVEGANLFFTQKARLMIEEKGAIIFKDASANKGGVTSSSLEVLAALALNDEEFDRHMCVKDNVVPEFYENYIKDVHHTIESNARLEFECIWSEHESTKTPRSILSDLLSNKINSLNDSIQTSSLWTDQSLRRKIISAACPKVLLNLLGVDKIMERVPEPYVKAIFGSYLASRFVYKYGLNSNEFAFYTYMETLKQQ
notes: also called DdGlud2; Dictyostelium Glud2; not shown: 6X-His, N-terminal, cleaved; SUMO (yeast SMT3), N-terminal, cleaved
stoichiometry N (SEC): 2

From paper PMC7949102 (The Journal of Biological Chemistry, 2021)
